Data: patent US8778966B2, “Quinolinone derivatives as PARP and tank inhibitors” (Janssen Pharmaceutica, NV, priority 2007, dated 2014)

Legend:
HCT116 cells = test: Antiproliferative activity, Alamar Blue assay, HCT116 cells; type: cell-based, human; design: key to HCT116 antiproliferative activity pIC50: pIC50 = -log IC50 (IC50: conc. reducing growth to 50% of control); conditions: for IC50: Homo sapiens, HCT-116, HCT116 cells, read-out: HCT116 antiproliferative activity pIC50 (converted)
Outline: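 Readout is resazurin fluorescence (ex 540, em 590 nm) after a 4 h dye incubation at 37 °C, following 4-day compound treatment of HCT116 cells plated 24 h earlier. Results expressed as % viable cells versus untreated; pIC50 derived from probit-fitted IC50.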

Human PARP-1 enzyme = target: T1, Human PARP-1 enzyme (Homo sapiens, UniProt P09874); test: In vitro Scintillation Proximity Assay (SPA) for PARP-1 inhibitory activity; type: biochemical; conditions: read-out: in vitro SPA assay PARP-1 pIC50 (converted)
T1 construct: purchased Trevigen
T1 sequence (P09874 whole entry): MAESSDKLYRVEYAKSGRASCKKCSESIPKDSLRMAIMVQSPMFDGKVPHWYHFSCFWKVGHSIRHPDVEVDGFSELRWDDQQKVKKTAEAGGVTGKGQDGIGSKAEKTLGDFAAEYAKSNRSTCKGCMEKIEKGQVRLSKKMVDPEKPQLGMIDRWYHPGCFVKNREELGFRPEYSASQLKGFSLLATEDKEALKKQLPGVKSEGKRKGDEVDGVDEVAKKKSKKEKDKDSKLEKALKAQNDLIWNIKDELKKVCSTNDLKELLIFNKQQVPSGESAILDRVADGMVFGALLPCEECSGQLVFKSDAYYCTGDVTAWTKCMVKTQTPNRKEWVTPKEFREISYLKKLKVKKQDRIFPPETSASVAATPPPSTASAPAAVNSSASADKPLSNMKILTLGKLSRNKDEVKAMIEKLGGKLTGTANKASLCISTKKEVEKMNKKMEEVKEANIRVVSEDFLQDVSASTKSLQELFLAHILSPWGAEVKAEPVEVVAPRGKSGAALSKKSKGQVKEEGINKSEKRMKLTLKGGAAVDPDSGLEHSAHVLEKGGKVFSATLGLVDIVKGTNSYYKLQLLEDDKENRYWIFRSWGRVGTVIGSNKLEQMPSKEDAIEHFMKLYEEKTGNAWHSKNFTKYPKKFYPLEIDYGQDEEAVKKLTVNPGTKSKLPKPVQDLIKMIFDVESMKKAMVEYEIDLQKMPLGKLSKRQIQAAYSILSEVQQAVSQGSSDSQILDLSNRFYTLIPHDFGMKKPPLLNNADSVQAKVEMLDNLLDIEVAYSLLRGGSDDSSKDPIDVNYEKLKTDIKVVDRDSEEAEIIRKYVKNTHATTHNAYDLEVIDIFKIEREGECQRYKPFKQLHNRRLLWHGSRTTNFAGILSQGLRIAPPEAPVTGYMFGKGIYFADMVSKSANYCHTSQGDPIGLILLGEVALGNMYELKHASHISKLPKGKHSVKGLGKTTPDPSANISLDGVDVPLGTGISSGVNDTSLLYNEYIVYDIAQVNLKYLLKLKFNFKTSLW
Outline: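 SPA assay: nicked-DNA-activated PARP-1 (0.1–0.2 μg/ml) ADP-ribosylates biotinylated histones (2 μg/ml) using [3H]-NAD+, 20 min at RT in Tris pH 8/DTT/MgCl2, stopped with 2 mM NAD+. Blank-subtracted cpm expressed as % control; IC50 by linear interpolation, reported as pIC50 (10−5 to 3×10−9 M tested).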

CCc1cc2ccc(C(C)(C#N)Cc3cccc(N4CCCC4)n3)cc2[nH]c1=O (centres unmarked) [Compound 226]
IC50 (HCT116 cells): 1260 nM | IC50 (Human PARP-1 enzyme): 50.1 nM

Cc1cc2ccc(C(C)(C#N)Cc3cccc(C#N)n3)cc2[nH]c1=O (centres unmarked) [Compound 227]
IC50 (HCT116 cells): 501 nM | IC50 (Human PARP-1 enzyme): 100 nM

CCc1cc2ccc(C(C)(C#N)Cc3cc(OC)cc(OC)n3)cc2[nH]c1=O (centres unmarked) [Compound 232]
IC50 (HCT116 cells): 100 nM | IC50 (Human PARP-1 enzyme): 25.1 nM

CCc1cc2ccc(C(C)(C#N)Cc3cc(C#N)cc4c3OCC4)cc2[nH]c1=O (centres unmarked) [Compound 236]
IC50 (HCT116 cells): 200 nM | IC50 (Human PARP-1 enzyme): 20 nM

CCc1cc2ccc(C(C)(C#N)Cc3cc4ccccc4nn3)cc2[nH]c1=O (centres unmarked) [Compound 238]
IC50 (HCT116 cells): 1580 nM | IC50 (Human PARP-1 enzyme): 39.8 nM

Cc1cc2ccc([C@@](C)(C#N)[C@@H]3CCc4cc(Br)ccc43)cc2[nH]c1=O [Compound 240]
IC50 (HCT116 cells): 10000 nM | IC50 (Human PARP-1 enzyme): 200 nM

Cc1cc2ccc([C@@](C)(C#N)[C@H]3CCc4cc(Br)ccc43)cc2[nH]c1=O [Compound 241]
IC50 (HCT116 cells): 501 nM | IC50 (Human PARP-1 enzyme): 200 nM

Cc1cc2ccc([C@](C)(C#N)[C@@H]3CCc4cc(Br)ccc43)cc2[nH]c1=O [Compound 242]
IC50 (HCT116 cells): 50.1 nM | IC50 (Human PARP-1 enzyme): 158 nM

Cc1cc2ccc(C(C)(C#N)C3CCc4cc(Br)ccc43)cc2[nH]c1=O (centres unmarked) [Compound 244]
HCT116 antiproliferative activity pIC50 (HCT116 cells; HCT116 cells): 6.8 | IC50 (Human PARP-1 enzyme): 200 nM

Cc1cc2ccc(C(C)(C#N)C3CCc4c(Br)cccc43)cc2[nH]c1=O (centres unmarked) [Compound 248]
IC50 (HCT116 cells): 501 nM | IC50 (Human PARP-1 enzyme): 79.4 nM

Cc1cc2ccc(C(C)(C#N)C3CCc4ccc(Br)cc43)cc2[nH]c1=O (centres unmarked) [Compound 249]
IC50 (HCT116 cells): 158 nM | IC50 (Human PARP-1 enzyme): 126 nM

Cc1cc2ccc(C(C)(C#N)C3CCc4ccc(C#N)cc43)cc2[nH]c1=O (centres unmarked) [Compound 250]
IC50 (HCT116 cells): 200 nM | IC50 (Human PARP-1 enzyme): 100 nM

C=C(C)c1cccc(CC(C)(C#N)c2ccc3cc(CC)c(=O)[nH]c3c2)c1 (centres unmarked) [Compound 254]
IC50 (HCT116 cells): 501 nM | IC50 (Human PARP-1 enzyme): 31.6 nM

CCc1cc2ccc(C(C#N)(CC)Cc3cccc(C#N)c3)cc2[nH]c1=O (centres unmarked) [Compound 265]
IC50 (HCT116 cells): 501 nM | IC50 (Human PARP-1 enzyme): 20 nM

CCc1cc2ccc(C(C)(C#N)Cc3cc(F)cc(C#N)c3)cc2[nH]c1=O (centres unmarked) [Compound 266]
IC50 (HCT116 cells): 200 nM | IC50 (Human PARP-1 enzyme): 50.1 nM

CCc1cc2ccc(C(C#N)(CC)Cc3cccc(F)c3)cc2[nH]c1=O (centres unmarked) [Compound 270]
IC50 (HCT116 cells): 1580 nM | IC50 (Human PARP-1 enzyme): 39.8 nM

Cc1cc2ccc(C(C)(C#N)CCCCOc3ccccc3)cc2[nH]c1=O (centres unmarked) [Compound 272]
IC50 (HCT116 cells): 2000 nM | IC50 (Human PARP-1 enzyme): 126 nM

Cc1cc2ccc(C(C)(C#N)Cc3cc(F)cc(F)c3)cc2[nH]c1=O (centres unmarked) [Compound 282]
IC50 (HCT116 cells): 398 nM | IC50 (Human PARP-1 enzyme): 100 nM

CCc1cc2ccc(C(C)(C#N)Cc3cc(C)cc(Br)c3)cc2[nH]c1=O (centres unmarked) [Compound 284]
IC50 (HCT116 cells): 158 nM | IC50 (Human PARP-1 enzyme): 31.6 nM

CCc1cc2ccc(C(C#N)(CC)Cc3cccc(OC)c3)cc2[nH]c1=O (centres unmarked) [Compound 287]
IC50 (HCT116 cells): 1260 nM | IC50 (Human PARP-1 enzyme): 39.8 nM

CCc1cc2ccc(C(C)(C#N)CN(C)CCc3cn(C)c4ccccc34)cc2[nH]c1=O (centres unmarked) [Compound 303]
IC50 (HCT116 cells): 1580 nM | IC50 (Human PARP-1 enzyme): 63.1 nM

Cc1cc2ccc(C(C)(C#N)Cc3cccc(Oc4ccccn4)c3)cc2[nH]c1=O (centres unmarked) [Compound 304]
IC50 (HCT116 cells): 251 nM | IC50 (Human PARP-1 enzyme): 100 nM

CCOc1cc(N(C)C)nc(CC(C)(C#N)c2ccc3cc(CC)c(=O)[nH]c3c2)n1 (centres unmarked) [Compound 312]
IC50 (HCT116 cells): 501 nM | IC50 (Human PARP-1 enzyme): 39.8 nM

CCOc1cc(C#N)nc(CC(C)(C#N)c2ccc3cc(CC)c(=O)[nH]c3c2)n1 (centres unmarked) [Compound 315]
IC50 (HCT116 cells): 631 nM | IC50 (Human PARP-1 enzyme): 63.1 nM

CCc1cc2ccc(C(C#N)(CC)Cc3nc(C#N)cc(OC)n3)cc2[nH]c1=O (centres unmarked) [Compound 316]
IC50 (HCT116 cells): 631 nM | IC50 (Human PARP-1 enzyme): 39.8 nM

CCc1cc2ccc(C(C#N)(CC)Cc3nc(OC)cc(OC)n3)cc2[nH]c1=O (centres unmarked) [Compound 321]
IC50 (HCT116 cells): 316 nM | IC50 (Human PARP-1 enzyme): 79.4 nM

CCc1cc2ccc(C(C)(C#N)Cc3ccnc(C#N)c3)cc2[nH]c1=O (centres unmarked) [Compound 324]
IC50 (HCT116 cells): 3160 nM | IC50 (Human PARP-1 enzyme): 39.8 nM

CCc1cc2ccc(C(C)(C#N)Cc3cc(C)nc(Cl)c3)cc2[nH]c1=O (centres unmarked) [Compound 326]
IC50 (HCT116 cells): 794 nM | IC50 (Human PARP-1 enzyme): 63.1 nM

CCc1cc2ccc(C(C)(C#N)Cc3cc(C)nc(C#N)c3)cc2[nH]c1=O (centres unmarked) [Compound 328]
IC50 (HCT116 cells): 501 nM | IC50 (Human PARP-1 enzyme): 63.1 nM

CCc1cc2ccc(C(C)(C#N)Cc3ccnc(F)c3)cc2[nH]c1=O (centres unmarked) [Compound 330]
IC50 (HCT116 cells): 5010 nM | IC50 (Human PARP-1 enzyme): 39.8 nM

CCc1cc2ccc(C(C)(C#N)Cc3cccc(F)n3)cc2[nH]c1=O (centres unmarked) [Compound 331]
IC50 (HCT116 cells): 631 nM | IC50 (Human PARP-1 enzyme): 31.6 nM
